# Laboratory results as given in patent publication US20260294906A1, “TREATING PSORIASIS USING A SMALL MOLECULE INHIBITOR OF TUMOR NECROSIS FACTOR ALPHA” (SANOFI, priority 2023, published 2026).
# Values joined by “and” are separate entries in the source; they are usually repeats but may differ in a detail not shown here. Identical values can stand only once. “Also recorded” adds a separate entry of the source.
# Tests used:
# Format in all cases: in vivo, human
# [1] = tested on: IL-17F; experiment: Serum levels of biomarker IL-17F (single molecule counting sandwich immunoassay)
# Experimental: (§1) The primary objective of the study was to assess the safety, tolerability, and clinical efficacy of Compound 1 at 200 mg BID via oral administration. Also evaluated was the clinical effect of Compound 1 as compared to placebo on the percent change in PASI and TLS scores from baseline to week 2 and week 4. The percent change in PASI score from baseline to week 4 was determined. TLS score was also assessed over the same time period. Also assessed was the effect of Compound 1 on biomarkers of psoriasis. Blood samples collected at predetermined time points were processed to quantify serum levels of biomarkers, including interleukin (IL)-17A, IL-17F, and IL-22 by high sensitivity methods. IL-17A, IL-17F and IL-22 are the main cytokines released by Th17 cells. Plasma levels of Compound 1 were measured to assess pharmacokinetics in the study population.
# (§2) Two study interventions were used, Compound 1 and placebo. The Compound 1 intervention comprised 4× tablets of Compound 1 50 mg twice daily, i.e. 200 mg BID, for 4 weeks. The placebo intervention was 4× tablets of placebo twice daily for 4 weeks. Tablets were administered orally.
# Blood samples were processed for analysis of IL-17A, IL-17F and IL-22 in serum samples by high sensitivity methods. Samples were collected according to the schedule of activity described above.
# As indicated above, peripheral blood samples collected at predetermined time points were processed to quantify serum levels of biomarkers of psoriasis including IL-17A, IL-17F, and IL-22. Levels of IL-17A and IL-17F were quantified using a single molecule counting sandwich immunoassay (SMCxPro™, Millipore—see also Hwang et al., Methods (2019) 158:69-76). Levels of IL-22 were quantified using a single-molecule array ELISA (SIMOA™, Myriad RBM—see also Rissin et al., Anal Chem (2011) 83(6):2279-2285). Statistical analysis was based on geometric mean ratio to baseline; a two-sample t-test at significance alpha level of 5% was used for calculation of the p-values.
# [2] = tested on: patients with mild to moderate psoriasis; experiment: Clinical response by Psoriasis Area and Severity Index (PASI) score, phase 1 placebo-controlled study; conditions: for LSm (±SE) % improvement from baseline in total PASI score: 200 mg BID oral, fed; for LSm (±SE) % improvement from baseline in total PASI score / ΔLSm (±SE) (Compound 1 minus placebo) in % improvement from baseline in total PASI score: MMRM
# Experimental: (§3) A double-blind, randomized, placebo-controlled phase 1 study was carried out in participants with mild to moderate psoriasis. Study participants were randomized to 200 mg twice a day (BID) of Compound 1 or placebo in 2:1 ratio (approximately 24 in the treatment group and 12 in the placebo group). The study comprised an up to 4-week screening period, and a 4-week treatment period with Compound 1 or placebo. An end-of-study visit was carried out 10±3 days after the last investigational medicinal product (IMP) administration.
# as §1, §2
# (§4) The interventions were used in two arms of the study. Arm 1 was the experimental arm and it involved participants receiving 200 mg of Compound BID for 4 weeks under fed conditions. Arm 2 was the placebo arm and it involved participants receiving the matching placebo tablets for 4 weeks under fed conditions.
# The PASI scoring system evaluates psoriasis based on the body surface area (BSA) involvement and morphological characteristics of the plaques (see, e.g., EMA Guidelines on clinical investigation of medicinal products indicated for the treatment of psoriasis, Nov. 18, 2004). BSA estimation was performed using the ‘palm’ (i.e., the subject's flat hand and thumb together, fingers not included). The palm thus defined represented 1% of the total BSA. The PASI combines assessments of four body areas: head (h, 10%), upper extremities (u, 20%), trunk (t, 30%) and lower extremities (1, 40%). Using the palm to assess BSA (as described above) the proportion of skin affected by psoriasis in each area was given a numerical score (A) representing the proportion involved: 1 (0 to 9%); 2 (10 to 29%); 3 (30 to 49%); 4 (50 to 69%); 5 (70 to 89%) and 6 (90 to 100%). Within each area the severity of three signs, erythema (E), thickness/induration (I), and desquamation/scaling (D), was each assessed on a five-point scale: 0, none; 1, mild; 2, moderate; 3, severe; 4, very severe. The PASI ranges from 0 to 72 and is calculated using the following formula: […]
# The PASI score was assessed at baseline, 2 weeks and 4 weeks. Table 4 below presents the LSm (±SE) for each treatment and ΔLSm (Compound 1 minus placebo) with 90% confidence interval (CI) in percentage improvement from baseline in the total PASI score at week 2 and week 4.
# The results in Table 4 were obtained using the MMRM.
# Table 5 below presents the mean (±SEM) percentage improvements from baseline in the total PASI score at week 2 and week 4 in the patient population with PASI<10 (mild) or PASI≥[…] at baseline.
# The results in Table 5 come from standard descriptive analysis, ^(1)N=3, ^(2)N=15.
# [3] = tested on: patients with mild to moderate psoriasis; experiment: Clinical response by static Investigator's Global Assessment (sIGA) score, phase 1 placebo-controlled study; conditions: 200 mg BID
# Experimental: as §3, §2, §4
# The sIGA employed in this study is a six-point ordinal scale used to assess the global severity of disease over the body as a whole, as measured by the overall degree of induration, scaling and erythema of a subject's psoriatic lesions. For statistical analysis, the scale was assigned scores of 0 to 5, for ‘clear’ to ‘very severe’, respectively.
# Scoring was accorded to a subject on a scale of 0 to 5 for each of erythema, induration, and scaling; a mean sIGA score was calculated as the mean average of those individual scores and this was translated into an overall sIGA score (an integer between 0 and 5) as described in the tables below:
# The sIGA score was assessed as described herein.
structure (smiles),measurement,setting,value
"CN1C(=O)c2cccc(OC(F)F)c2[C@H]2C[C@@H]1c1nc3ccc(-c4cnc(C5(N)CCC5)nc4)cc3n12 [Compound 1, (7R,14R)-11-[2-(1-aminocyclobutyl)pyrimidin-5-yl]-1-(difluoromethoxy)-6-methyl-6,7-dihydro-7,14-methanobenzimidazo[1,2-b][2,5]benzodiazocin-5(14H)-one]",Serum level of IL-17F (in words),[1]; after treatment for 4 weeks,substantially decreased
same,"Serum level of IL-17F, geometric mean (geometric SE)",[1]; baseline (before treatment),2.63 (1.19) pg/mL
same,"Serum level of IL-17F, geometric mean (geometric SE)","[1]; week 2, 200 mg BID",1.65 (1.21) pg/mL
same,"Serum level of IL-17F, geometric mean (geometric SE)","[1]; week 4, 200 mg BID",1.35 (1.21) pg/mL
same,Mean (±SEM) % improvement from baseline in total PASI score,"[2]; PASI < 10 (mild) population, week 2, 200 mg BID, N = 16, SEM 3.98",21.24% and 21.2%
same,Mean (±SEM) % improvement from baseline in total PASI score,"[2]; PASI < 10 (mild) population, week 4, 200 mg BID, N = 15, SEM 5.34",33.8% and 33.83%
same,Mean (±SEM) % improvement from baseline in total PASI score,"[2]; PASI ≥ 10 (moderate) population, week 2, 200 mg BID, N = 9",9.3% and 9.31% and 9.3 (3.60) %
same,Mean (±SEM) % improvement from baseline in total PASI score,"[2]; PASI ≥ 10 (moderate) population, week 4, 200 mg BID, N = 9",33.2% and 33.19% and 33.2 (4.03) %
same,improvement in PASI score (in words),[2]; after 4 weeks of treatment,clinically meaningful
same,improvement in psoriasis severity / clinical efficacy (in words),"[2]; compared to placebo, 4-week treatment, 200 mg BID","rapid and statistically significant improvement in psoriasis severity compared to placebo as early as week 2; also recorded: consistent clinical efficacy in a 4-week treatment period; also recorded: clinically effective, with sustained clinical response; also recorded: effective in improving clinical parameters in human patients"
same,LSm (±SE) % improvement from baseline in total PASI score,"[2]; week 2, vs placebo 4.12%, p=0.005",17.73% and 17.73 (2.75) %
same,ΔLSm (±SE) (Compound 1 minus placebo) in % improvement from baseline in total PASI score,"[2]; week 2, 200 mg BID, 90% CI 5.28 to 21.94",13.61% and 13.61 (4.92) %
same,LSm (±SE) % improvement from baseline in total PASI score,"[2]; week 4, vs placebo 15.71%, p=0.009",35.09% and 35.09 (4.47) %
same,ΔLSm (±SE) (Compound 1 minus placebo) in % improvement from baseline in total PASI score,"[2]; week 4, 200 mg BID, 90% CI 6.28 to 32.48",19.4% and 19.38% and 19.38 (7.75) %
same,mean reduction in total PASI score from baseline,"[2]; week 4, FIG. 2, placebo around 1.25 points",around 3.0 points
same,change in sIGA score (in words),[3]; compared with placebo,"clinically important change in sIGA score after 4 weeks of treatment; also recorded: a higher percentage of patients receiving Compound 1 improved from ‘moderate’ disease at baseline, to ‘mild’ or ‘almost clear’ at week 2 and week 4"
same,% of subjects with no change in sIGA from baseline,[3]; week 2,68.0%
same,% of subjects with sIGA change from baseline of −1,[3]; week 2,32.0%
same,Number of subjects with no change in sIGA from baseline,[3]; week 2,17
same,Number of subjects with sIGA change from baseline of +1,[3]; week 2,0
same,Number of subjects with sIGA change from baseline of −1,[3]; week 2,8
same,% of subjects with no change in sIGA from baseline,[3]; week 4,38.5%
same,% of subjects with sIGA change from baseline of +1,[3]; week 4,4.2%
same,Number of subjects with no change in sIGA from baseline,[3]; week 4,9
same,Number of subjects with sIGA change from baseline of +1,[3]; week 4,1
same,Number of subjects with sIGA change from baseline of −1,[3]; week 4,14
same,% of subjects with sIGA change from baseline of −1 (improvement by at least 1 severity level),"[3]; week 4, placebo 0%",58.3%
